Like-named read-outs stand apart in the source and are kept apart here.
Experiments:
pAKT in BT474 cells = test: Cell-based pAKT HTRF assay in BT474 cells; conditions: BT474 cells, 4 hr incubation, read-out: pAKT inhibition IC50 in BT474 cells
In short: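 Compound titration: 3 μM downward in 3-fold steps, nine points, 4 hr on cells. Detection: lysis, then d2 plus Eu Cryptate antibody mix, room-temperature incubation of 4–24 h, and time-resolved fluorescence read at 615 nm.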

[1] = target: Cys242 in human PIK3CA (157-299) (Homo sapiens (Human), UniProt P42336); test: Covalent modification assay using MALDI-TOF MS; format: biochemical; conditions: 4 h reaction time point
Sequence of Cys242 in human PIK3CA (157-299) (P42336 157-299): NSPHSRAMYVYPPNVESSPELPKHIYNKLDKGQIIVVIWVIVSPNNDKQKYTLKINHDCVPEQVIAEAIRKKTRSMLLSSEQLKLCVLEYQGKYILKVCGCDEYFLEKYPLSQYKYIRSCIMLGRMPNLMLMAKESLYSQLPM
In short: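 PIK3CA (157-299) at 3.33 μM or 1 μM in 20 mM HEPES, 150 mM NaCl, 2 mM MgCl2, pH 7.3 was incubated with compound (from 10 mM DMSO stocks) in the dark at room temperature for 15 min, 30 min, 2 h or 4 h. Linear-mode MALDI-TOF peak heights gave percent modification.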

[2] = 3.33 μM protein target, 1:7.5 protein to compound ratio (compounds 1-852)
[3] = Homo sapiens, BT-474, Compounds 10-999
[4] = 1 μM protein target, 1:5 protein to compound ratio (compounds 853-1279)

| Structure (SMILES) | IC50 (pAKT in BT474 cells; Compounds 10-999) | % of modification [1, 2] | also measured |
| --- | --- | --- | --- |
| C=CC(=O)N1CC[C@H](n2cc(-c3nc(-c4ccc5c(c4)CCNC5)c4ccsc4c3-c3ccc(F)cc3OCCOC)ccc2=O)C1 [Compound 173] | 0.1 to 1 µM | A (percent of modification of PIK3CA protein ≥75%) |  |
| C=CC(=O)N1CCn2nc(-c3nc(-c4cnn([C@@H](CO)CF)c4)c4ccsc4c3-c3ccc(F)cc3OCCOC)cc2C1 [Compound 280] | < 0.1 µM | A (percent of modification of PIK3CA protein ≥75%) |  |
| C=CC(=O)N1CC(n2cc(-c3nc(-c4ccc5c(c4)CCNC5)c4ccsc4c3-c3cccc(=O)n3CCOC)cn2)C1 [Compound 170] | 1 to 3 µM | D (percent of modification <25%) |  |
| C=CC(=O)N1CCc2ncc(-c3nc(-c4cnc(C)s4)c4ccsc4c3-c3c(F)cc(F)cc3OC(C)C)cc2C1 [Compound 392] | < 0.1 µM | A (percent of modification of PIK3CA protein ≥75%) |  |
| COc1cc(F)ccc1-c1c(-c2cnn(C3CN(C(=O)C(F)Cl)C3)c2)nc(-c2ccc3c(c2)CCNC3)c2ccsc12 (centres unmarked) [Compound 171] | > 3 µM | D (percent of modification <25%) |  |
| C=CC(=O)N1CCn2nc(-c3nc(-c4cn(C)cn4)c4ccsc4c3-c3c(F)cc(F)cc3OCCO)cc2[C@@H]1C [Compound 781] | < 0.1 µM | A (percent of modification of PIK3CA protein ≥75%) |  |
| C=CC(=O)N1CCc2nc(-c3nc(-c4ccc(C(C)(C)O)cc4)c4ccsc4c3-c3c(F)cc(F)cc3OCCOC)sc2C1 [Compound 419] | 0.1 to 1 µM | A (percent of modification of PIK3CA protein ≥75%) |  |
| C=CC(=O)N1CCn2nc(-c3nc(-c4ccc5c(c4)CCNC5)c4ccsc4c3-c3ccc(F)cc3OCCOC)nc2C1 [Compound 105, 1-[2-[7-[4-fluoro-2-(2-methoxyethoxy)phenyl]-4-(1,2,3,4-tetrahydroisoquinolin-6-yl)thieno[3,2-c]pyridin-6-yl]-6,8-dihydro-5H-[1,2,4]triazolo[1,5-a]pyrazin-7-yl]prop-2-en-1-one] |  | A (percent of modification of PIK3CA protein ≥75%) | IC50 (pAKT in BT474 cells; [3]): < 0.1 µM |
| C=CC(=O)N1Cc2cc(-c3nc(-c4ccc5c(c4)C(=O)N(C)C5)c4ccsc4c3-c3c(F)cc(F)cc3OC)nn2[C@@H](C)C1 [Compound 905] | 0.1 to 1 µM |  | % of modification [1, 4]: C (25%≤percent of modification <50%) |
| C=CC(=O)N1Cc2cc(-c3nc(C45CC(C(=O)NC)(C4)C5)c4ccsc4c3-c3c(F)cc(F)cc3OCCOC)nn2C[C@H]1C [Compound 1071, 3-((S)-6-((R)-5-acryloyl-6-methyl-4,5,6,7-tetrahydropyrazolo[1,5-a]pyrazin-2-yl)-7-(2,4-difluoro-6-(2-methoxyethoxy)phenyl)thieno[3,2-c]pyridin-4-yl)-N-methylbicyclo[1.1.1]pentane-1-carboxamide] |  |  | IC50 (pAKT in BT474 cells; Homo sapiens, BT-474, Compounds 1000-1279): < 0.1 µM; % of modification [1, 4]: B (50%<percent of modification <75%) |
| C=CC(=O)N1CC(n2cc(-c3nc(-c4ccc5c(c4)CCNC5)c4c(c3-c3ccc(F)cc3OCCOC)CCC4)cn2)C1 [Compound 109] | 0.1 to 1 µM | A (percent of modification of PIK3CA protein ≥75%) |  |
| C=CC(=O)N1CCc2cc(-c3nc(-c4ccc5c(c4)CNC(=O)C5)c4ccsc4c3-c3c(F)cc(F)cc3OCCOC)nn2CC1 [Compound 1024] |  |  | IC50 (pAKT in BT474 cells; Compounds 1000-1279): < 0.1 µM; % of modification [1, 4]: A (percent of modification of PIK3CA protein ≥75%) |
| C=CC(=O)N1CCc2nc(-c3nc(-c4cnc5c(c4)CNC(=O)C5)c4ccsc4c3-c3c(F)cc(F)cc3OC(C)C)sc2C1 (single isomer, unassigned) [Compound 588] | < 0.1 µM | A (percent of modification of PIK3CA protein ≥75%) |  |
| C=CC(=O)N1CCn2nc(-c3nc(-c4ccc5cn(C)nc5c4)c4ccsc4c3-c3c(F)cc(F)cc3OC[C@@H](C)O)cc2[C@@H]1C [Compound 770, 1-((S)-2-((S)-7-(2,4-difluoro-6-((R)-2-hydroxypropoxy)phenyl)-4-(2-methyl-2H-indazol-6-yl)thieno[3,2-c]pyridin-6-yl)-4-methyl-6,7-dihydropyrazolo[1,5-a]pyrazin-5(4H)-yl)prop-2-en-1-one] | < 0.1 µM | A (percent of modification of PIK3CA protein ≥75%) |  |
| C=CC(=O)N1Cc2cc(-c3nc(-c4cnn(C)c4)c4ccsc4c3-c3c(F)cc(F)cc3OCCO)nn2[C@@H](C)C1 [Compound 566] | 0.1 to 1 µM | D (percent of modification <25%) |  |
| C=CC(=O)N1Cc2cc(-c3nc(-c4ccc5cnncc5c4)c4ccsc4c3-c3c(F)cc(F)cc3OCCO)nn2CC1C (centres unmarked) [Compound 853] | < 0.1 µM |  | % of modification [1, 4]: A (percent of modification of PIK3CA protein ≥75%) |

| Structure (SMILES) | IC50 (pAKT in BT474 cells; Compounds 10-999) | % of modification [1, 2] | also measured |
| --- | --- | --- | --- |
| C=CC(=O)N1CCn2nc(-c3nc(-c4cnnc(N5CCN(C)CC5)c4)c4ccsc4c3-c3c(F)cc(F)cc3OCCOC)cc2C1C (centres unmarked) [Compound 1045] |  |  | IC50 (pAKT in BT474 cells; Compounds 1000-1279): < 0.1 µM; % of modification [1, 4]: A (percent of modification of PIK3CA protein ≥75%) |
| C=CC(=O)N1Cc2cc(-c3nc(-c4ccc(N(C)C)nc4)c4ccsc4c3-c3c(F)cc(F)cc3OCCOC)nn2CC1C (centres unmarked) [Compound 855] | < 0.1 µM |  | % of modification [1, 4]: A (percent of modification of PIK3CA protein ≥75%) |
| C=CC(=O)N1Cc2cc(-c3nc(-c4cnnc(C)c4)c4ccsc4c3-c3c(F)cc(F)cc3OCC(C)(C)O)nn2[C@@H](C)C1 [Compound 882] | < 0.1 µM |  | % of modification [1, 4]: A (percent of modification of PIK3CA protein ≥75%) |
| C=CC(=O)N1CCc2ncc(-c3nc(-c4ccc5c(c4)CCNC5)c4c(c3-c3ccc(F)cc3OCCOC)CCC4)cc2C1 [Compound 88] | < 0.1 µM | A (percent of modification of PIK3CA protein ≥75%) |  |
| C=CC(=O)N1CCc2cc(-c3nc(-c4cnc5c(c4)CNC(=O)C5)c4ccsc4c3-c3c(F)cc(F)cc3OCCOC)nn2CC1 [Compound 1005] |  |  | IC50 (pAKT in BT474 cells; Compounds 1000-1279): > 1 µM; % of modification [1, 4]: D (percent of modification <25%) |
| C=CC(=O)N1CC(n2cc(-c3nc(-c4cnn(C)c4)c4ccsc4c3-c3ccc(F)cc3OC)cn2)C1 [Compound 76] | < 0.1 µM | A (percent of modification of PIK3CA protein ≥75%) |  |
| C=CC(=O)N1CC[C@@H](n2cc(-c3nc(-c4ccc(=O)n(C)c4)c4ccsc4c3-c3c(F)cc(F)cc3OC(C)C)cn2)C1 [Compound 389] | < 0.1 µM | A (percent of modification of PIK3CA protein ≥75%) |  |
| C=CC(=O)N1CCc2nc(-c3nc(-c4cnc5c(c4)CCN(C)C5)c4ccsc4c3-c3c(F)cc(F)cc3OC(C)C)sc2C1 [Compound 518] | < 0.1 µM | A (percent of modification of PIK3CA protein ≥75%) |  |
| C=CC(=O)N1CCn2nc(-c3nc(-c4cnc5cn(C)nc5c4)c4ccsc4c3-c3c(F)cc(F)cc3OCCOC)cc2C1C (centres unmarked) [Compound 912] | < 0.1 µM |  | % of modification [1, 4]: A (percent of modification of PIK3CA protein ≥75%) |
| C=CC(=O)N1CCn2nc(-c3nc(-c4cccc(C#N)c4)c4ccsc4c3-c3ccc(F)cc3OCCOC)cc2C1 [Compound 270] | < 0.1 µM | A (percent of modification of PIK3CA protein ≥75%) |  |
| C=CC(=O)N1CC(n2cc(-c3nc(-c4ccc5c(c4)CNC(=O)C5)c4ccsc4c3-c3cccnc3OC)cn2)C1 [Compound 84, 7-[7-(2-methoxy-3-pyridyl)-6-[1-(1-prop-2-enoylazetidin-3-yl)pyrazol-4-yl]thieno[3,2-c]pyridin-4-yl]-2,4-dihydro-1H-isoquinolin-3-one] |  | B (50%<percent of modification <75%) | IC50 (pAKT in BT474 cells; [3]): 1 to 3 µM |
| C=CC(=O)N1Cc2cc(-c3nc(-c4ccc5nn(C)cc5c4)c4ccsc4c3-c3c(F)cc(F)cc3OC[C@@H](C)O)nn2C[C@H]1C [Compound 754] | < 0.1 µM | A (percent of modification of PIK3CA protein ≥75%) |  |
| C=CC(=O)N1CCn2nc(-c3nc(-c4cnn(C)c4)c4ccsc4c3-c3c(F)cc(F)cc3OCCO)cc2[C@H]1C [Compound 641] | 0.1 to 1 µM | C (25%≤percent of modification <50%) |  |
| C=CC(=O)N1CC(n2cc(-c3nc(-c4ccc5c(c4)CCNCC5)c4ccsc4c3-c3ccc(F)cc3OC)cn2)C1 [Compound 102] | 0.1 to 1 µM | A (percent of modification of PIK3CA protein ≥75%) |  |
| C=CC(=O)N1Cc2cc(-c3nc(-c4ccc5nc(C)oc5c4)c4ccsc4c3-c3c(F)cc(F)cc3OCCOC)nn2CC1C (centres unmarked) [Compound 497] | < 0.1 µM | A (percent of modification of PIK3CA protein ≥75%) |  |

— US20250230138A1, “COMPOUNDS HAVING A T-STRUCTURE FORMED BY AT LEAST FOUR CYCLES FOR USE IN THE TREATMENT OF CANCER AND OTHER INDICATIONS” (TheRas, Inc., priority 2022, published 2025)
